{"source": "patent US9663501B1", "about": "“Process for preparing a novel crystalline form of thifensulfuron-methyl and use of the same” (ROTAM AGROCHEM INTERNATIONAL COMPANY LIMITED, priority 2015, dated 2017)", "key": {"[1]": {"experiment": "Cleanout test (residue in polyethylene bottles, acetonitrile extract, HPLC)", "format": "physicochemical", "conditions": "for Cleanout rating (concentration of thifensulfuron-methyl in the acetonitrile solution): lower rating = more effective cleanout", "procedure": "The test was conducted by dispersing in water a sample to produce a concentration that is normally used when applying the herbicide: 25% thifensulfuron-methyl. The sample was added to tap water (300 mL) in a 400 mL beaker and magnetically stirred for 2 minutes. The mixture was then stirred for 2 minutes, whereupon the resulting dispersion was dispensed in three 100 mL aliquots to 4-oz (118 mL) polyethylene bottles. The bottles were capped, inverted twice and allowed to stand overnight.\nAfter standing overnight, each individual bottle was inverted twice and the liquid contents were then poured out. Tap water (10 mL) was added and the bottle was inverted until all sediment was re-suspended, whereupon the contents were poured out. Tap water (100 mL) was added and the bottle was inverted twice and then allowed to stand undisturbed for 10 minutes. The bottle was inverted twice more and the contents were poured out. Acetonitrile (10 mL) was added to the bottle to extract any remaining material. The acetonitrile solution was analyzed by reversed-phase liquid chromatography with UV detection. The cleanout rating (the concentration of thifensulfuron-methyl herbicide in the acetonitrile solution) is reported in % in Table 6 below."}, "[2]": {"experiment": "Viscosity (stated in words, no method given)", "format": "physicochemical"}}, "data": [{"smiles": "COC(=O)c1sccc1S(=O)(=O)NC(=O)Nc1nc(C)nc(OC)n1", "note": "[Amorphous thifensulfuron-methyl, methyl 3-(4-methoxy-6-methyl-1,3,5-triazin-2-ylcarbamoylsulfamoyl)thiophene-2-carboxylate, reference compound]", "values": [{"measurement": "Cleanout rating (concentration of thifensulfuron-methyl in the acetonitrile solution)", "setting": "[1]; OD formulation", "value": 26, "unit": "%"}, {"measurement": "Cleanout rating (concentration of thifensulfuron-methyl in the acetonitrile solution)", "setting": "[1]; SG formulation", "value": 10, "unit": "%"}, {"measurement": "Cleanout rating (concentration of thifensulfuron-methyl in the acetonitrile solution)", "setting": "[1]; WG formulation", "value": 13, "unit": "%"}, {"measurement": "Viscosity, in words", "setting": "[2]; listed as thifensulfuron-methyl in amorphous state", "value": "highly viscous"}]}, {"smiles": "COC(=O)c1sccc1S(=O)(=O)NC(=O)Nc1nc(C)nc(OC)n1", "note": "[Thifensulfuron-methyl, crystalline modification I] [methyl 3-(4-methoxy-6-methyl-1,3,5-triazin-2-ylcarbamoylsulfamoyl)thiophene-2-carboxylate]", "values": [{"measurement": "Cleanout rating (concentration of thifensulfuron-methyl in the acetonitrile solution)", "setting": "[1]; OD formulation", "value": 5, "unit": "%"}, {"measurement": "Cleanout rating (concentration of thifensulfuron-methyl in the acetonitrile solution)", "setting": "[1]; SG formulation", "value": 0.1, "unit": "%"}, {"measurement": "Cleanout rating (concentration of thifensulfuron-methyl in the acetonitrile solution)", "setting": "[1]; WG formulation", "value": 2, "unit": "%"}, {"measurement": "Cleanout properties, in words", "setting": "[1]; compared with known amorphous thifensulfuron-methyl product", "value": "markedly superior cleanout properties"}, {"measurement": "Viscosity, in words", "setting": "[2]; listed as crystalline modification I of thifensulfuron-methyl", "value": "significant decrease in its viscosity"}]}]}
